Assay results published in patent US6448024B1, “Method, reagent, cartridge, and device for determining fibrinogen” (Roche Diagnostics Corporation, priority 2000, dated 2002).
Several values for one entry are separate records, joined by “and”; a condition that tells them apart may be missing. Identical values can stand only once. Like-named read-outs stand apart in the source and are kept apart here. Each block holds one compound with its values, some of them ahead of it.

How the values were obtained:
thrombin [1] = experiment: One or both of the two assays (wet and cartridge), summary of effective thrombin inhibitors; format: biochemical; conditions: wet and/or cartridge assay; result in words
thrombin [2] = experiment: Wet screening assay for thrombin inhibitors with BBL Fibrometer (clotting time of fibrinogen solutions); format: biochemical, human plasma or bovine; conditions: for Clotting Time (average), n = 2: 15 mg/mL benzamidine (final concentration); for Found useful/effective as thrombin inhibitor in fibrometer wet assay: result in words; for Clot Time: 200 μL 0.5 mg/mL D.S. working solution, 50 μL 100 U/mL thrombin
Method: Materials and Methods: A phosphate buffered saline (PBS)-albumin solution was formed as follows:
2) 100 U/mL thrombin working solution; thrombin was obtained from Calbiochem (605206—human plasma, or 605157—bovine); and
3) fibrinogen working solutions having fibrinogen concentrations ranging from between 6 and 24 mg/mL fibrinogen; fibrinogen was obtained from Calbiochem (341578).
Screening Assay Procedure Using Fibrometer: A BBL Fibrometer was utilized to determine clotting times of test solutions. Test solutions were formed by adding the following components in the following order:
1. 200 μL D.S. working solution,
2. 50 μL thrombin working solution,
3. 50 μL fibrinogen working solution.
Immediately upon addition of the third component (i.e., the fibrinogen working solution), the fibrometer was activated, resulting in the probe being released into the vessel containing the reaction solution. The probe was agitated until sufficient resistance to motion was reached corresponding to a predetermined degree of clotting. A display indicated time from activation of the probe until the predetermined degree of clotting was reached.
Using the method of Example 1, 15 mg/mL benzamidine (Sigma B6506) in the PBS-albumin solution (final concentration) was contacted with samples containing varying amounts of fibrinogen.

thrombin [3] = molecular target: T1, thrombin (Bos taurus, UniProt P00735); experiment: Cartridge assay (CoaguChek Plus), dried thrombin reagent in cartridge, inhibitor added to sample; format: biochemical, bovine; set-up: adding thrombin (Calbiochem 605157 bovine) to the HEPES Base solution; purchased Calbiochem 605157; conditions: for Concentration in reagent found to be effective: clotting time above 10 s and below 300 s for fibrinogen 50 to 400 mg/dL, under 10 s without inhibitor
Method: An assay cartridge as described above was constructed in which the reagent chamber was coated with a dried reagent containing thrombin in a HEPES buffer matrix. Liquid samples containing latex beads as blood cell surrogates and various levels of fibrinogen were introduced into the cartridge contained within a CoaguChek™ Plus device. Just prior to introducing a sample into the device, the particular thrombin modulator being tested was added to the sample. A variety of thrombin modulators were tested in this manner.
A HEPES Base solution, pH=7.4, was formed from the following ingredients:
A thrombin solution was formed by adding thrombin (Calbiochem 605157 bovine) to the HEPES Base solution, the resulting concentration being 67 units/mL thrombin.
A 10% solution by weight of polystyrene spheres with a mean diameter of 3.27 μm (Bang Laboratories P0032700) was utilized as a blood cell surrogate for plasma or synthetic blood solutions “plastic sphere solution”).
Test cartridges were prepared by applying 3 microliters of the thrombin solution thereto and drying the solution. For each sample, a fresh “thrombin” cartridge was utilized.
Cartridges containing the dried thrombin reagent were utilized for the following experiments. Standard solutions were prepared in accordance with Example 3, except the thrombin inhibitor concentration was fixed, and the fibrinogen concentrations varied.

thrombin [4] = molecular target: T1, thrombin
Method: Additional cartridges were prepared in which specific inhibitors were combined with the thrombin solution, the thrombin inhibitor/thrombin solution deposited in the cartridge, and dried. […] The TDS reagent (3 microliters) was applied to cartridges and dried. Fibrinogen test samples for these cartridges comprised 40 μL of the fibrinogen working solution combined with 7 μL of the plastic sphere solution.

Compound: Gly-Pro-Ala
Thrombin inhibitor found to be effective (thrombin [1]): effective

Compound: N=C(N)c1ccccc1 [benzamidine]
Thrombin inhibitor found to be effective (thrombin [1]): effective | Clotting Time (average), n = 2 (thrombin [2]; sample fibrinogen 100 mg/dL): 242 s | Clotting Time (average), n = 2 (thrombin [2]; sample fibrinogen 200 mg/dL): 139 s | Clotting Time (average), n = 2 (thrombin [2]; sample fibrinogen 400 mg/dL): 93 s

Compound: Gly-Gly-Arg
Thrombin inhibitor found to be effective (thrombin [1]): effective | Concentration in reagent found to be effective (thrombin [3]): 0.85 mg/mL and 1.3 mg/mL

Clotting Time After Application To Inlet Port Of Cartridge Containing Thrombin Reagent (thrombin [3]; […] Gly-Pro-Arg peptide, fibrinogen 100 mg/mL (so in the source)): 239.6 s | Clotting Time After Application To Inlet Port Of Cartridge Containing Thrombin Reagent (thrombin [3]; […] Gly-Pro-Arg peptide, fibrinogen 102 mg/mL (so in the source)): 44.1 s | Clotting Time After Application To Inlet Port Of Cartridge Containing Thrombin Reagent (thrombin [3]; […] Gly-Pro-Arg peptide, fibrinogen 204 mg/mL (so in the source)): 9.9 s
Compound: Gly-Pro-Arg

Compound: Polyvinylsulfate
Thrombin inhibitor found to be effective (thrombin [1]): effective

Average Clotting Time After Application To Inlet Port Of Cartridge (n = 2) (thrombin [4]; TA reagent dried in cartridge (67 units/mL thrombin, 20 10 g/dL aprosulate as printed), fibrinogen 25.5 mg/mL (so in the source)): 275 s | Average Clotting Time After Application To Inlet Port Of Cartridge (n = 2) (thrombin [4]; TA reagent dried in cartridge, fibrinogen 102 mg/mL (so in the source)): 134 s | Average Clotting Time After Application To Inlet Port Of Cartridge (n = 2) (thrombin [4]; TA reagent dried in cartridge, fibrinogen 204 mg/mL (so in the source)): 41 s | Average Clotting Time After Application To Inlet Port Of Cartridge (n = 2) (thrombin [4]; TA reagent dried in cartridge, fibrinogen 408 mg/mL (so in the source)): 24 s | Clotting Time After Application To Inlet Port Of Cartridge Containing Thrombin Reagent (thrombin [3]; 43 mg/mL aprosulate, fibrinogen 76 mg/mL (so in the source)): 149.1 s | Clotting Time After Application To Inlet Port Of Cartridge Containing Thrombin Reagent (thrombin [3]; 43 mg/mL aprosulate, fibrinogen 153 mg/mL (so in the source)): 85.5 s | Clotting Time After Application To Inlet Port Of Cartridge Containing Thrombin Reagent (thrombin [3]; 43 mg/mL aprosulate, fibrinogen 306 mg/mL (so in the source)): 21.4 s
Compound: O=C(NCCCNC(=O)[C@H](OS(=O)(=O)O)[C@@H](OS(=O)(=O)O)[C@H](O[C@@H]1O[C@H](COS(=O)(=O)O)[C@H](OS(=O)(=O)O)[C@H](OS(=O)(=O)O)[C@H]1OS(=O)(=O)O)[C@@H](COS(=O)(=O)O)OS(=O)(=O)O)[C@H](OS(=O)(=O)O)[C@@H](OS(=O)(=O)O)[C@H](O[C@@H]1O[C@H](COS(=O)(=O)O)[C@H](OS(=O)(=O)O)[C@H](OS(=O)(=O)O)[C@H]1OS(=O)(=O)O)[C@@H](COS(=O)(=O)O)OS(=O)(=O)O [Aprosulate, aprosulate]
Thrombin inhibitor found to be effective (thrombin [1]): effective

Concentration in reagent found to be effective (thrombin [3]): 5 mg/mL
Compound: dextran sulfate [Dextran Sulfate-5,000 Da]

Compound: dextran sulfate [dextran sulfate (5,000-50,000 MW)]
Thrombin inhibitor found to be effective (thrombin [1]): effective

Compound: Cn1c(=O)c2c(ncn2C)n(C)c1=O [Caffeine, caffeine]
Thrombin inhibitor found to be effective (thrombin [1]): effective | Clotting Time After Application To Inlet Port Of Cartridge Containing Thrombin Reagent (thrombin [3]; […] caffeine, fibrinogen 100 mg/mL (so in the source)): 88.8 s | Clotting Time After Application To Inlet Port Of Cartridge Containing Thrombin Reagent (thrombin [3]; […] caffeine, fibrinogen 200 mg/mL (so in the source)): 30.0 s | Clotting Time After Application To Inlet Port Of Cartridge Containing Thrombin Reagent (thrombin [3]; […] caffeine, fibrinogen 400 mg/mL (so in the source)): 24.8 s

Compound: dextran sulfate
Found useful/effective as thrombin inhibitor in fibrometer wet assay (thrombin [2]; listed as dextran sulfate (50,000 Da—Dextralip 50)): effective

Compound: Polyanetholesulfate
Thrombin inhibitor found to be effective (thrombin [1]): effective

Clotting Time After Application To Inlet Port Of Cartridge (thrombin [4]; TDS reagent dried in cartridge (67 units/mL thrombin, 57 mg/mL dextran sulfate 10,000 Da), fibrinogen 198 mg/mL (so in the source)): 40.0 s | Clotting Time After Application To Inlet Port Of Cartridge (thrombin [4]; TDS reagent dried in cartridge (67 units/mL thrombin, 57 mg/mL dextran sulfate 10,000 Da), fibrinogen 396 mg/mL (so in the source)): 26.7 s | Clotting Time After Application To Inlet Port Of Cartridge (thrombin [4]; TDS reagent dried in cartridge (67 units/mL thrombin, 57 mg/mL dextran sulfate 10,000 Da, 3 microliters), fibrinogen 99 mg/mL (so in the source)): 69.6 s | Clotting Time After Application To Inlet Port Of Cartridge Containing Thrombin Reagent (thrombin [3]; 21 mg/mL dextran sulfate (10,000 Da), fibrinogen 100 mg/mL (so in the source) in combined assay solution): 157.5 s | Clotting Time After Application To Inlet Port Of Cartridge Containing Thrombin Reagent (thrombin [3]; 21 mg/mL dextran sulfate (10,000 Da), fibrinogen 102 mg/mL (so in the source)): 81.9 s | Clotting Time After Application To Inlet Port Of Cartridge Containing Thrombin Reagent (thrombin [3]; 21 mg/mL dextran sulfate (10,000 Da), fibrinogen 204 mg/mL (so in the source)): 28.6 s
Compound: dextran sulfate [dextran sulfate (10,000 Da)]
Clot Time (thrombin [2]; final assay fibrinogen 100 mg/dL, about 0.6 s without dextran sulfate): 22.8 s | Clot Time (thrombin [2]; final assay fibrinogen 200 mg/dL): 11.8 s | Clot Time (thrombin [2]; final assay fibrinogen 250 mg/dL): 9.8 s | Clot Time (thrombin [2]; final assay fibrinogen 400 mg/dL): 1.2 s | Found useful/effective as thrombin inhibitor in fibrometer wet assay (thrombin [2]): useful thrombin inhibitor reagent
